Assay results taken from patent US20260076948A1, “TREATMENT OF DIABETIC RETINOPATHY USING ENDOTHELIN RECEPTOR ANTAGONISTS” (Perfuse Therapeutics, Inc., priority 2019, published 2026).
Entries after “also recorded” stand apart in the source; their conditions may differ.

Columns and labels:
[1] = Pharmacokinetics after topical or oral administration in the rat; type: in vivo, Brown Norway rats
Method: After the administrations, the animals (N=2) were euthanized at different time points (e.g. 4 and 8 hours) and tissues were collected for analysis. List of tissues collected include plasma, retina/retinal pigment epithelium (RPE)/choroid, vitreous humor and aqueous humor.

Permeability (PAMPA) = type: in vitro ADME; conditions: PAMPA log Pe and PSA
Excerpt: (§1) In the above table, the physicochemical data, e.g., solubility, were obtained following standard protocols known in the field (see, e.g., Reis et al., Mini Rev Med Chem., 2010, 10(11):1071-6; Avdeef et al., Expert Opin Drug Metab Toxicol., 2005, 1(2):325-42; Bharate et al., Comb Chem High Throughput Screen., 2016, 19(6):461-9; and Jain et al., J Pharm Biomed Anal., 2013, 86:11-35.); and the biochemical data, i.e., potency for ETA/ETB, were obtained following the protocols known in the field (see, e.g., Kirkby et al., Br J Pharmacol., 2008, 153(6):1105-19; and Maguire et al., Br J Pharmacol., 2014, 171(24):5555-72.).

[2] = tested on: Morrison's rat model of glaucoma (elevated IOP); test: Morrison's rat model of glaucoma (RGC counts, PERG); type: in vivo, Brown Norway rats; conditions: topical eye drops 100 μg per dose, five days a week, four weeks
Excerpt: Adult male and female retired breeder Brown Norway rats (approximate age groups of 8 to 11 months) were obtained from Envigo (Indianapolis, IN). Baseline IOP measurements and pattern electroretinogram (PERG) amplitudes were collected prior to the surgery for elevation of IOP (to ensure that the IOP and PERG amplitudes were in the expected range of values). IOP was elevated in one eye (left eye) of the rats, while the corresponding right eyes served as contralateral controls. The Morrison method to elevate IOP in rats was carried out by injection of 50 μL. of hypertonic saline through the episcleral veins to sclerose the trabecular meshwork. IOP was measured twice a week throughout the entire duration of the experiment. […] After detecting an elevation of IOP for two consecutive days, topical administration of eye drops (20 μL (100 μg) per dose of the tested compounds in the IOP elevated eye) was commenced and carried out for five days a week for a total of four weeks. In the 4th week of treatment, PERG analysis was carried out and rats were sacrificed by an overdose of pentobarbital (Fatal-Plus). Aqueous humor was collected from the rat eyes, frozen and shipped for analysis. Retinal flat mounts were prepared, immunostained with the RGC marker, Brn3a antibody and surviving RGCs were counted in two eccentricities (central and peripheral).
For this study, the Morrison's model was used to induce ocular hypertension in adult male retired breeder Brown Norway rats as previously described by Morrison et al., (Morrison J C, Moore C G, Deppmeier L M, Gold B G, Meshul C K, Johnson E C. A rat model of chronic pressure-induced optic nerve damage. Exp Eye Res. 1997; 64(1):85-96).
The immunostained retinal flat mounts were obtained to measure the retinal ganglion cell (RGC) counts. To obtain immunostained retinal flat mounts, the animals were euthanized after the treatments and then their eyes were enucleated. The eye cups were fixed overnight at 4° C. in 4% paraformaldehyde (PFA) and retinal flat mounts were prepared for collecting images. The retinal ganglion cell (RGC) counting was conducted using the images of immunostained retinal flat mounts. The images were uploaded to ImageJ, a photo editor designed for biology research (Rasband, 1997-2018) and the labeled retinal ganglion cells were counted manually in two eccentricities (central and peripheral).
Pattern ERG (PERG) was used to assess the RGC function. […] Briefly, PERG signals were acquired from a DTL-plus electrode placed on the lower part of the corneal surface and the PERG waves were analyzed using the EMWIN software (LKC). The difference between the amplitude of the major positive (P1) and negative (N2) waves were calculated to decipher the PERG amplitude.

ETA = biological target: T1, ETA (Homo sapiens, UniProt P25101); test: Functional potency for ETA receptor; type: biochemical
T1 sequence (P25101 21-427): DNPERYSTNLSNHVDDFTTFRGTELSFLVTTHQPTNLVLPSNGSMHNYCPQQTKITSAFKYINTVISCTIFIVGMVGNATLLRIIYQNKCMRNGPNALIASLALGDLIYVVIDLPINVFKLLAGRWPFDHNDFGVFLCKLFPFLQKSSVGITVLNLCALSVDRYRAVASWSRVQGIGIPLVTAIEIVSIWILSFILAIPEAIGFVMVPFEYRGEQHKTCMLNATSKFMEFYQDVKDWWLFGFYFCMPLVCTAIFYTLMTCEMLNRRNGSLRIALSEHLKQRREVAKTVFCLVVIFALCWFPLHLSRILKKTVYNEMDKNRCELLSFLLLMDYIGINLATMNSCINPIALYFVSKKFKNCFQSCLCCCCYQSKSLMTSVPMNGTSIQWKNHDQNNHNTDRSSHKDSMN
Excerpt: as §1

ET-1 induced vasospasm = test: Rabbit ET-1 induced vasospasm model, retinal blood flow (FA, OCT-A); type: in vivo, rabbit (Oryctolagus cuniculus)
Method: Adult, male Dutch-belted rabbits were given a 20 μl intravitreal injection (IVT) of 0.5 μg of ET-1 followed by a 20 μl intravitreal injection of 10-100 μg Edonentan given 30 min after the ET-1 administration. IOP, optical coherence tomography-angiography (OCT-A), and fluorescein angiograms (FA) were performed at pre-specified time points (30, 45, 60, and 75 min) following ET-1 and Edonentan administration to assess retinal blood flow changes induced by ET-1+/−Edonentan. […] To evaluate the effect of retinal blood flow following intravitreally administered endothelin-1 (ET-1) followed by the antagonist Edonentan in the rabbit, rabbits (Oryctolagus cuniculus) were given a 20 μL intravitreal injection of ET-1 in the left eye followed by a 20 μL intravitreal injection of Edonentan at 2 (or 3) different doses (e.g. 0.1 μg, 0.5 μg, 2.5 μg). The pulse ox, tonometry, optical coherence tomography angiography (OCTA), fluorescein angiography (FA) and retinal leakage scoring were performed for evaluation.

Detection in the aqueous humor after oral administration ([1]; oral, 17 mg/kg as printed): detectable
Detection in the retina/RPE/choroid and vitreous humor after oral administration ([1]; oral, 1.7 and 17 mg/kg as printed): detectable
Permeability, rating in words (Permeability (PAMPA)): Mid-High
Functional potency for ETA and ETB receptors, rating in words (ETA): High potency
Specificity ETA versus ETB, rating in words (ETA; ETA vs ETB): High specificity
Structure (SMILES): Cc1onc(NS(=O)(=O)c2ccccc2-c2ccc(-c3ncco3)cc2CN(C)C(=O)CC(C)(C)C)c1C [Edonentan, N-[[2′-[[(4,5-dimethyl-3-isoxazolyl)amino]sulfonyl]-4-(2-oxazolyl)[1,1′-biphenyl]-2-yl]methyl]-N,3,3-trimethylbutanamide]
Ocular exposure after topical administration (retina/RPE/choroid, aqueous humor, vitreous humor) ([1]; eye drop 100 μg, 4 and 8 hours): detected; also recorded: permeate through cornea/sclera and achieve retina exposure
Pattern electroretinogram (PERG) changes, RGC function [2]: maintained RGC function
Retinal ganglion cell (RGC) counts in the peripheral retina [2]: prevented RGC loss
ET-1 induced vasospasm / vasoconstriction (fluorescein angiography) (ET-1 induced vasospasm; 0.5 μg ET-1 IVT, then 10 μg Edonentan IVT 30 min later): reversed; also recorded: reversal
Time to reversal of the ET-1 effect (ET-1 induced vasospasm; after ET-1, 10 μg Edonentan IVT (60 min after Edonentan)): ≤ 90 min
Fluorescein dye velocity as an index of retinal blood flow (ET-1 induced vasospasm; healthy rabbits, 0.5 μg ET-1 and 10 μg antagonist IVT): improved to control levels
